Results published in patent US6894061B2, “Substituted dihydrophenanthridinesulfonamides” (Wyeth, priority 2002, dated 2005).
pEC50, pIC50: −log10 of the molar value. Where two headings read alike, the source gives them in different places.

Key:
creatine kinase = test: Creatine kinase (CK) test procedure in Ad5-wt-ERα infected HAECT-1 cells; format: cell-based, human; conditions: Ad5-wt-ERα infected HAECT-1 cells; for pEC50 / Emax / Emax at 10 µM: Homo sapiens, HAECT1; for pEC50: read-out: Creatin Kinase EC50; for Emax / Emax at 10 µM: read-out: Creatin Kinase Efficacy (%)
Procedure: (§1) After four hours, cells were washed with EBM-BSA and incubated overnight in the same medium. Following overnight incubation, cells were washed with EBM-BSA and infected for 2 hours with 6 mL of a 1:10 dilution of Ad5-3x(NFκB).Luc virus (Adenovirus luciferase expression vector driven by 3 repeats of the MHC NFκb site 5′ to the thymidine kinase promoter) in EBM-BSA. After two hours, cells were washed and incubated at 34° C. for 1 hour. […] Control (no ER infection) cells were processed as above without Ad5-wt-hERα virus infection.
(§2) ERα infected HAECT-1 cells or control cells were thawed, diluted 42× in warm EBM-BSA, plated into 96-well plates at 0.1 mL/well and incubated for 4 hours at 34° C. Test compounds were added to the cells as 2× stocks in EBM-BSA containing 2 ng/mL IL-1β (R&D Systems) and the 96-well plates were returned to the incubator (34° C.). After 15-20 hours, 100 μL aliquots of media were removed from the cells and assayed for IL-6 content using a BioSource human IL-6 ELISA Kit. Cells were subsequently washed with 300 μL of Dulbecco's phosphate buffered saline and lysed in 50 μL of Cell Culture Lysis Reagent (Promega). Luciferase was determined on a Wallac Victor^2 Luminometer (Gaithersburg, Md.) using 10 μL of lysate and mixing with 100 μL of Promega Luciferase Assay reagent. Creatine kinase was determined from the rate of increase in A340 following addition of 100 μL of CK assay reagent (Sigma, cat. No 47-10) to the remainder of the cell lysate.
(§3) For IC50 and EC50 calculations, mean IL-6, luciferase or CK values versus log10 of the compound concentration were fitted to a four parameter logistic equation. The IC50/EC50 value, ‘Hill slope’, upper and lower limits of the curve were iteratively estimated.

IL-6 = IL-6 test procedure (IL-6 ELISA of media) in Ad5-wt-ERα infected HAECT-1 cells; format: cell-based, human; conditions: for Emax: read-out: Interleukin-6 Efficacy (%); for pIC50: read-out: Interleukin-6 IC50
Procedure: as §1, §2, §3

ER/NF-κB = ER/NF-κB luciferase reporter in Ad5-wt-ERα infected HAECT-1 cells; format: cell-based, human; conditions: Homo sapiens, HAECT1, IL-1β; for pIC50: read-out: ER/NFκB IC50; for Emax: read-out: ER/NFκB Efficacy (%)*
Procedure: as §1, §2, §3

melting point [°C] | pIC50 (ER/NF-κB) | SMILES | Emax (creatine kinase) [%] | Emax at 10 µM (creatine kinase) [%] | Emax (ER/NF-κB) [%] | also measured
– | – | C[C@H]1c2ccccc2-c2ccc(F)cc2N1S(=O)(=O)c1cccc(O)c1 [Example 108, 3-{[(6S)-3-Fluoro-6-methylphenanthridin-5(6H)-yl]sulfonyl}phenol] | 11 | – | – | pEC50 (creatine kinase): 6.82; Emax (IL-6; Homo sapiens, HAECT1, IL-1β): 92%; pIC50 (IL-6; Homo sapiens, HAECT1, IL-1β): 7.37
– | – | C[C@@H]1c2cc(F)ccc2-c2ccc(F)cc2N1S(=O)(=O)c1ccc(O)cc1 (single isomer, unassigned) [Example 99] | – | – | – | Emax (IL-6; Homo sapiens, HAECT1, IL-1β): 139%; pIC50 (IL-6; Homo sapiens, HAECT1, IL-1β): 6.47
– | – | C[C@H]1c2cc(F)ccc2-c2ccc(F)cc2N1S(=O)(=O)c1cccc(O)c1 (single isomer, unassigned) [Example 102] | – | – | – | Emax (IL-6; Homo sapiens, HAECT1, IL-1β): 156%; pIC50 (IL-6; Homo sapiens, HAECT1, IL-1β): 8.27
– | – | C[C@@H]1c2cc(F)ccc2-c2ccc(F)cc2N1S(=O)(=O)c1cccc(O)c1 (single isomer, unassigned) [Example 101] | – | – | – | Emax (IL-6; Homo sapiens, HAECT1, IL-1β): 74%; pIC50 (IL-6; Homo sapiens, HAECT1, IL-1β): 5.89
– | – | C[C@H]1c2ccccc2-c2ccc(Cl)cc2N1S(=O)(=O)c1cccc(O)c1 [Example 120, 3-{[(6S)-3-Chloro-6-mthylphenanthridin-5(6H)-yl]sulfonyl}ph nol] | – | – | – | Creatin Kinase Efficacy (%) (creatine kinase): 10%; Interleukin-6 Efficacy (%) (IL-6; IL-1β): 153%; pIC50 (IL-6; IL-1β): 8.22
– | – | C[C@@H]1c2cc(F)ccc2-c2ccc(F)cc2N1S(=O)(=O)c1ccc(O)cc1O (single isomer, unassigned) [Example 104] | 9 | – | – | Emax (IL-6; Homo sapiens, HAECT1, IL-1β): 43%; pIC50 (IL-6; Homo sapiens, HAECT1, IL-1β): 6.77
163 to 165 | < 5.00 | CC1c2ccccc2-c2ccccc2N1S(=O)(=O)c1ccc(O)c(O)c1 (stereo not shown) [Example 23, 4-[(6-Methylphenanthridin-5(6H)-yl)sulfonyl]benzene-1,2-diol] | – | < 35 | – | –
151 | 7.57 | CCC1c2cc(F)ccc2-c2ccccc2N1S(=O)(=O)c1ccc(O)cc1 (stereo not shown) [Example 40, 4-[(6-Ethyl-8-fluorophenanthridin-5(6H)-yl)sulfonyl]phenol] | – | < 35 | 99 | –
193 to 195 | 6.32 | Cc1cc(S(=O)(=O)N2c3ccc(Br)cc3-c3ccccc3C2C)ccc1O (stereo not shown) [Example 6, 4-[(2-Bromo-6-methylphenanthridin-5(6H)-yl)sulfonyl]-2-methylphenol] | – | < 35 | 92 | –
188 | 7.02 | CC1c2cc(F)ccc2-c2ccccc2N1S(=O)(=O)c1ccc(O)cc1 (stereo not shown) [Example 32, 4-[(8-Fluoro-6-methylphenanthridin-5(6H)-yl)sulfonyl]phenol] | 26 | – | 96 | pEC50 (creatine kinase): 6.52
186 to 188 | 6.36 | Cc1cc(S(=O)(=O)N2c3ccccc3-c3ccccc3C2C)ccc1O (stereo not shown) [Example 5, 2-Methyl-4-[(6-methylphenanthridin-5(6H)-yl)sulfonyl]phenol] | – | < 35 | 102 | –
– | – | CC1c2ccc(F)cc2-c2ccc(F)cc2N1S(=O)(=O)c1ccc(O)cc1 (stereo not shown) [Example 114, 4-[(3,9-Difluoro-6-mthylphenanthridin-5(6H)-yl)sulfonyl]ph nol] | – | – | – | Creatin Kinase Efficacy (%) (creatine kinase): 23%; Interleukin-6 Efficacy (%) (IL-6; IL-1β): 98%; pIC50 (IL-6; IL-1β): 7.11
210 to 212 | 6.77 | O=S(=O)(c1ccc(O)cc1)N1c2ccccc2-c2ccccc2[C@@H]1c1ccccc1 (single isomer, unassigned) [Example 11] | 37 | – | 115 | pEC50 (creatine kinase): 6.93
201 to 203 | 7.27 | CC1c2ccccc2-c2cc(Br)ccc2N1S(=O)(=O)c1ccc(O)cc1 (stereo not shown) [Example 4, 4-[(2-Bromo-6-methylphenanthridin-5(6H)-yl)sulfonyl]phenol] | 23 | – | 101 | pEC50 (creatine kinase): 7.32
161 | 6.28 | CC1c2cc(F)ccc2-c2ccccc2N1S(=O)(=O)c1cccc(O)c1 (stereo not shown) [Example 48, 3-[(8-fluoro-6-methylphenanthridin-5(6H)-yl)sulfonyl]phenol] | – | < 35 | 107 | –
187 to 189 | 5.64 | CC(C)(C)[C@H]1c2ccccc2-c2ccccc2N1S(=O)(=O)c1ccc(O)cc1 [Example 16, 4-{[(S)-6-tert-Butylphenanthridin-5(6H)-yl]sulfonyl}phenol] | 15 | – | 89 | pEC50 (creatine kinase): 5.50
196 to 198 | 6.37 | CC1c2ccccc2-c2ccccc2N1S(=O)(=O)c1ccc(O)cc1 (stereo not shown) [Example 1, 4-[(6-Methylphenanthridin-5(6H)-yl)sulfonyl]phenol] | 39 | – | 94 | pEC50 (creatine kinase): 6.00
217 to 220 | 6.90 | O=S(=O)(c1ccc(O)cc1)N1c2ccccc2-c2ccccc2C1c1ccccc1 (stereo not shown) [Example 9, 4-[(6-Phenylphenanthridin-5(6H)-yl)sulfonyl]phenol] | 26 | – | 89 | pEC50 (creatine kinase): 6.34
211 to 213 | 5.76 | Cc1cc(S(=O)(=O)N2c3ccccc3-c3ccccc3C2C)cc(C)c1O (stereo not shown) [Example 59, 2,6-Dimethyl-4-[(6-methylphenanthridin-5(6H)-yl)sulfonyl]phenol] | 22 | – | 102 | pEC50 (creatine kinase): 5.53
– | – | C[C@H]1c2cc(F)ccc2-c2ccc(F)cc2N1S(=O)(=O)c1ccc(O)cc1 (single isomer, unassigned) [Example 100] | – | – | – | Emax (IL-6; Homo sapiens, HAECT1, IL-1β): 196%; pIC50 (IL-6; Homo sapiens, HAECT1, IL-1β): 8.16
237 to 239 | < 5.00 | O=S(=O)(c1ccc(O)c(Br)c1)N1c2ccc(Br)cc2-c2ccccc2C1c1ccccc1 (stereo not shown) [Example 13, 2-Bromo-4-[(2-bromo-6-phenylphenanthridin-5(6H)-yl)sulfonyl]phenol] | – | < 35 | – | –
207 | 7.22 | CCC1c2cc(F)ccc2-c2cc(-c3ccccc3)ccc2N1S(=O)(=O)c1ccc(O)cc1 (stereo not shown) [Example 47, 4-[(6-Ethyl-8-fluoro-2-phenylphenanthridin-5(6H)-yl)sulfonyl]phenol] | – | < 35 | 89 | –
105 | 7.28 | CCC1c2ccccc2-c2cc(-c3cccc(O)c3)ccc2N1S(=O)(=O)c1ccc(O)cc1 (stereo not shown) [Example 30, 3-{6-Ethyl-5-[(4-hydroxyphenyl)sulfonyl]-5,6-dihydrophenanthridine-2-yl}phenol] | – | < 35 | 76 | –
213 to 215 | < 5.00 | CC1c2ccccc2-c2ccccc2N1S(=O)(=O)c1ccc(O)c(C(F)(F)F)c1 (stereo not shown) [Example 58, 4-[(6-Methylphenanthridin-5(6H)-yl)sulfonyl]-2-(trifluoromethyl)phenol] | – | < 35 | – | –
174 to 177 | < 5.00 | CCC1c2cc(F)ccc2-c2ccccc2N1S(=O)(=O)c1ccc(O)c(Cl)c1 (stereo not shown) [Example 46, 2-Chloro-4-[(6-ethyl-8-fluorophenanthridin-5(6H)-yl)sulfonyl]phenol] | – | < 35 | – | –
237 to 239 | 6.45 | CC1c2cc(F)ccc2-c2cc(Br)ccc2N1S(=O)(=O)c1ccc(O)cc1 (stereo not shown) [Example 45, 4-[(2-Bromo-8-fluoro-6-methylphenanthridin-5(6H)-yl)sulfonyl]phenol] | – | < 35 | 92 | –
191 | < 5.00 | CC1c2cc(F)ccc2-c2ccccc2N1S(=O)(=O)c1ccc(O)c(F)c1 (stereo not shown) [Example 49, 2-Fluoro-4-[(8-fluoro-6-methylphenanthridin-5(6H)-yl)sulfonyl]phenol] | – | < 35 | – | –
203 to 206 | < 5.00 | CC1c2ccccc2-c2cc(Br)ccc2N1S(=O)(=O)c1ccc(O)c(F)c1 (stereo not shown) [Example 57, 4-[(2-Bromo-6-methylphenanthridin-5(6H)-yl)sulfonyl]-2-fluorophenol] | – | < 35 | – | –
212 | 6.16 | CC1c2ccc(O)cc2-c2ccccc2N1S(=O)(=O)c1ccc(O)cc1 (stereo not shown) [Example 36, 5-[(4-Hydroxyphenyl)sulfonyl]-6-methyl-5,6-dihydrophenanthridin-9-ol] | – | < 35 | 60 | –
